Legend:
[1] = system: STAT5 phosphorylation by GMCSF in TF-1 cells; experiment: JAK cellular assay: STAT5 phosphorylation by GMCSF in TF-1 cells (HTRF); type: cell-based; conditions: Homo sapiens; TF-1 cells, GMCSF 5 ng/ml, pSTAT5 HTRF; read-out: Cell Based Assay (μM) TF-1/GMCSF/pSTAT5
In short: (§1)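 TF-1 cells starved overnight in low-serum OptiMEM, then 120,000/well in RPMI, preincubated with compound 30 min at 37 °C (0.2% DMSO final). Stimulation 20 min with IL-6 30 ng/ml (pSTAT3) or GMCSF 5 ng/ml (pSTAT5); lysate phospho-STAT by HTRF, unstimulated background subtracted.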

[2] = target: T1, Recombinant JAK2 (Homo sapiens, UniProt O60674); experiment: JAK biochemical assay (LANCE Ultra TR-FRET), JAK2; conditions: recombinant JAK2, TR-FRET; read-out: Biochemical Assay (μM) JAK2
T1 construct: purchased Carna Biosciences
T1 sequence (O60674 whole entry): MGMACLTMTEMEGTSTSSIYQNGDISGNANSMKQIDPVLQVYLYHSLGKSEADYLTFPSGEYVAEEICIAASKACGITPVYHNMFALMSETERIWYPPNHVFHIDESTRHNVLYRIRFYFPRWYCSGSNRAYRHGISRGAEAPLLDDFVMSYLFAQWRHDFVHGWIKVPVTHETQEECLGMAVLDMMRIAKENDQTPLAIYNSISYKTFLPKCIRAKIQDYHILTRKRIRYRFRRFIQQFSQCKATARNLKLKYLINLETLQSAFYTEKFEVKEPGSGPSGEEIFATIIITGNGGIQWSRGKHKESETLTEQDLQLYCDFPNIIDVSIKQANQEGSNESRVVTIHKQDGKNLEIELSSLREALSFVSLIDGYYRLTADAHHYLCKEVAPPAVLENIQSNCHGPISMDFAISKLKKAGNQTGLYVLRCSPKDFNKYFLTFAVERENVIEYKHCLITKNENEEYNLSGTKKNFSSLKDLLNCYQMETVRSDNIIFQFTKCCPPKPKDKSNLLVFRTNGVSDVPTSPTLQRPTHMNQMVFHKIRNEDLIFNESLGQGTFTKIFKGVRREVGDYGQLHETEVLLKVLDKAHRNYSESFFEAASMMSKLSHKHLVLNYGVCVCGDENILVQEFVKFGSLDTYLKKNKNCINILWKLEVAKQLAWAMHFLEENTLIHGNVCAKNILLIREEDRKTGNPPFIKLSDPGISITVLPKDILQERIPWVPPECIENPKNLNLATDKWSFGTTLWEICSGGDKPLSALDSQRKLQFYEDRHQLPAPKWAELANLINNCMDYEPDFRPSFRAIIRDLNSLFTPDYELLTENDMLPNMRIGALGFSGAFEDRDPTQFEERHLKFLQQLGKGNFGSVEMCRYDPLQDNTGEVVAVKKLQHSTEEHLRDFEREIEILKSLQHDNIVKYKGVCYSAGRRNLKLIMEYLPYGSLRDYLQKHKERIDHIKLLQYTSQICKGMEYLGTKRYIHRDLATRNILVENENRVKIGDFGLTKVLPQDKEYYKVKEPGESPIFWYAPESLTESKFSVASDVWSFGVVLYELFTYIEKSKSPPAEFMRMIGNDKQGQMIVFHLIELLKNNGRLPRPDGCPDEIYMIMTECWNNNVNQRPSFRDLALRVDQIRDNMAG
In short: (§2)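 TR-FRET read-out of ULight substrate phosphorylation by recombinant kinase gives % inhibition relative to vehicle. The assay buffer is HEPES pH 7.5 with EGTA, MgCl2, DTT and Tween-20.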

[3] = system: STAT5 phosphorylation by IL-2 in HT-2 cells; experiment: STAT5 phosphorylation by IL-2 in HT-2 cells (HTRF); type: cell-based; conditions: HT2, HT-2 cells, IL-2 50 U/ml, pSTAT5 HTRF; read-out: Cell Based Assay (μM) HT-2/IL-2/pSTAT5
Experimental: HT-2 cells were starved […] in RPMI phenol red with 10% fetal bovine serum for 4 hours in CO2 incubator maintained at 37° c. Compounds were diluted in DMSO and added to 96 well plate containing a final density of 1,20,000 cells per well. Cells and compounds are incubated for 30 minutes in CO2 incubator maintained at 37° C. and final DMSO concentration in cell based assay was 0.2%. Human recombinant cytokine, IL-2 (50 U/ml) was added to the plate containing cells and compound and incubated for 20 minutes with gentle tapping/shaking at every 5 minutes once. Compound mediated effects on STAT5 phosphorylation was measured in the lysates prepared by using CISBIO pSTAT5 detection kit by HTRF method. Background signal obtained from cells which were not activated with cytokines, was subtracted from vehicle controls and compound treated wells.

[4] = system: STAT3 phosphorylation by IL-6 in TF-1 cells; experiment: JAK cellular assay: STAT3 phosphorylation by IL-6 in TF-1 cells (HTRF); type: cell-based; conditions: Homo sapiens, TF-1, TF-1 cells, IL-6 30 ng/ml, pSTAT3 HTRF; read-out: Cell Based Assay (μM) TF-1/IL-6/pSTAT3
In short: as §1

[5] = target: T2, Recombinant JAK3 (Homo sapiens, UniProt P52333); experiment: JAK biochemical assay (LANCE Ultra TR-FRET), JAK3; conditions: recombinant JAK3, TR-FRET; read-out: Biochemical Assay (μM) JAK3
T2 construct: purchased Carna Biosciences
T2 sequence (P52333 1-1124): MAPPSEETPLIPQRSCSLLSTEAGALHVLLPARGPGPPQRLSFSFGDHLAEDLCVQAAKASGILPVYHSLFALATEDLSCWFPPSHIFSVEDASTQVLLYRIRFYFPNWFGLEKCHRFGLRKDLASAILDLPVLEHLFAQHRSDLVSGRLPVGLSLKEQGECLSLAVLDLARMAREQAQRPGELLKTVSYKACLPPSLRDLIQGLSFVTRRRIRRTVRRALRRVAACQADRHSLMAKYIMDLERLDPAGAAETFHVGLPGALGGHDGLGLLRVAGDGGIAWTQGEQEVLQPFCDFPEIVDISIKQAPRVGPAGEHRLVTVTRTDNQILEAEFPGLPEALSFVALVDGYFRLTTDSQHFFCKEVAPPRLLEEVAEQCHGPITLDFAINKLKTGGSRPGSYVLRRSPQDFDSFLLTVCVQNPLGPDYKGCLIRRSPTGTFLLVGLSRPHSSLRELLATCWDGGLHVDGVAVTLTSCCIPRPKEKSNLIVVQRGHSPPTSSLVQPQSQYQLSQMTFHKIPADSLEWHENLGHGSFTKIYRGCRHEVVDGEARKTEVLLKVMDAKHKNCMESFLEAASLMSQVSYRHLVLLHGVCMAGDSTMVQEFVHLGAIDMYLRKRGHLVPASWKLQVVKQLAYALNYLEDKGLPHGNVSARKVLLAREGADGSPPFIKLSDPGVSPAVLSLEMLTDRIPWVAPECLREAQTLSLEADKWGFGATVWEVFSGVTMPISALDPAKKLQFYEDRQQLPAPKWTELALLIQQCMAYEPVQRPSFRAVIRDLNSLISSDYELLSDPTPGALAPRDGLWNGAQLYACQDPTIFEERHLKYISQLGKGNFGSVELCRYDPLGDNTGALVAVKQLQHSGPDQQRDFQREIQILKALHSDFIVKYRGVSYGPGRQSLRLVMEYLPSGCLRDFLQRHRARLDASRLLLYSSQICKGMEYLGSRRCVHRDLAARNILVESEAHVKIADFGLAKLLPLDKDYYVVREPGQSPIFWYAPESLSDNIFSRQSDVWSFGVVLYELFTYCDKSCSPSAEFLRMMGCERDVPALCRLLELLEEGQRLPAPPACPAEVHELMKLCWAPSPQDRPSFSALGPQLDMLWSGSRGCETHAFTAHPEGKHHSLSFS
In short: as §2

[6] = target: T3, Recombinant JAK1 (Homo sapiens, UniProt P23458); experiment: JAK biochemical assay (LANCE Ultra TR-FRET), JAK1; conditions: recombinant JAK1, TR-FRET; read-out: Biochemical Assay (μM) JAK1
T3 construct: purchased Carna Biosciences
T3 sequence (P23458 whole entry): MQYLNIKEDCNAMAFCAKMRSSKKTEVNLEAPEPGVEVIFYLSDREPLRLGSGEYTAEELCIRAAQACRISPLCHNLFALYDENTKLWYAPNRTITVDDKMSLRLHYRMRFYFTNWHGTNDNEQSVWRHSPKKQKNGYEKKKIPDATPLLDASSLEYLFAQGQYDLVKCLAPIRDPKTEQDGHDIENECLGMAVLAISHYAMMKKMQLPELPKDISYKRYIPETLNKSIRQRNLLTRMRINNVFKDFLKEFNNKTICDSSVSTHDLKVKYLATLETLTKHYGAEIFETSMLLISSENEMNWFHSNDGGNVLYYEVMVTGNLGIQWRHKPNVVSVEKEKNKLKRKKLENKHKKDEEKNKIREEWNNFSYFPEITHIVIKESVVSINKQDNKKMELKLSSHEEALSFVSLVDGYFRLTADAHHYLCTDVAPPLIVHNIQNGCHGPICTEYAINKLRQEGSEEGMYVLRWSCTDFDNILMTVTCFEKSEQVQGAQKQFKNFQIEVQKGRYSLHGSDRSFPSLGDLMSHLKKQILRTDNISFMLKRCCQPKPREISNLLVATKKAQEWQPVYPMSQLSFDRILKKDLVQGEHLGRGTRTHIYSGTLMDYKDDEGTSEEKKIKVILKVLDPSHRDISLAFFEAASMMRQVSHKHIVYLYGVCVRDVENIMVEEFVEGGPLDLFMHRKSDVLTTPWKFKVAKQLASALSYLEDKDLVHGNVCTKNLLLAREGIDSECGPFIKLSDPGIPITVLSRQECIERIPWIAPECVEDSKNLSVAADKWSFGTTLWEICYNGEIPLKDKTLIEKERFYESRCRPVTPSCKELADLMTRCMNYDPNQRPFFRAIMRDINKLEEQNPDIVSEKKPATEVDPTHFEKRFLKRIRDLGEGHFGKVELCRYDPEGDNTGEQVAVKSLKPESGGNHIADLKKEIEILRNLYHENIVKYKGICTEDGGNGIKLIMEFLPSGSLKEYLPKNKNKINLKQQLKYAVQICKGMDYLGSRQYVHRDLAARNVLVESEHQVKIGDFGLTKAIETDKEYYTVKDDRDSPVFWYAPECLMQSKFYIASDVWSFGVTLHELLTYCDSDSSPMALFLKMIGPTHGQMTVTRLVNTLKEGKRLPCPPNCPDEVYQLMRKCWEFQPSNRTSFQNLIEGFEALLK
In short: as §2

[7] = target: T4, Recombinant TYK2 (Homo sapiens, UniProt P29597); experiment: JAK biochemical assay (LANCE Ultra TR-FRET), TYK2; conditions: recombinant TYK2, TR-FRET; read-out: Biochemical Assay (μM) TYK2
T4 construct: purchased Carna Biosciences
T4 sequence (P29597 whole entry): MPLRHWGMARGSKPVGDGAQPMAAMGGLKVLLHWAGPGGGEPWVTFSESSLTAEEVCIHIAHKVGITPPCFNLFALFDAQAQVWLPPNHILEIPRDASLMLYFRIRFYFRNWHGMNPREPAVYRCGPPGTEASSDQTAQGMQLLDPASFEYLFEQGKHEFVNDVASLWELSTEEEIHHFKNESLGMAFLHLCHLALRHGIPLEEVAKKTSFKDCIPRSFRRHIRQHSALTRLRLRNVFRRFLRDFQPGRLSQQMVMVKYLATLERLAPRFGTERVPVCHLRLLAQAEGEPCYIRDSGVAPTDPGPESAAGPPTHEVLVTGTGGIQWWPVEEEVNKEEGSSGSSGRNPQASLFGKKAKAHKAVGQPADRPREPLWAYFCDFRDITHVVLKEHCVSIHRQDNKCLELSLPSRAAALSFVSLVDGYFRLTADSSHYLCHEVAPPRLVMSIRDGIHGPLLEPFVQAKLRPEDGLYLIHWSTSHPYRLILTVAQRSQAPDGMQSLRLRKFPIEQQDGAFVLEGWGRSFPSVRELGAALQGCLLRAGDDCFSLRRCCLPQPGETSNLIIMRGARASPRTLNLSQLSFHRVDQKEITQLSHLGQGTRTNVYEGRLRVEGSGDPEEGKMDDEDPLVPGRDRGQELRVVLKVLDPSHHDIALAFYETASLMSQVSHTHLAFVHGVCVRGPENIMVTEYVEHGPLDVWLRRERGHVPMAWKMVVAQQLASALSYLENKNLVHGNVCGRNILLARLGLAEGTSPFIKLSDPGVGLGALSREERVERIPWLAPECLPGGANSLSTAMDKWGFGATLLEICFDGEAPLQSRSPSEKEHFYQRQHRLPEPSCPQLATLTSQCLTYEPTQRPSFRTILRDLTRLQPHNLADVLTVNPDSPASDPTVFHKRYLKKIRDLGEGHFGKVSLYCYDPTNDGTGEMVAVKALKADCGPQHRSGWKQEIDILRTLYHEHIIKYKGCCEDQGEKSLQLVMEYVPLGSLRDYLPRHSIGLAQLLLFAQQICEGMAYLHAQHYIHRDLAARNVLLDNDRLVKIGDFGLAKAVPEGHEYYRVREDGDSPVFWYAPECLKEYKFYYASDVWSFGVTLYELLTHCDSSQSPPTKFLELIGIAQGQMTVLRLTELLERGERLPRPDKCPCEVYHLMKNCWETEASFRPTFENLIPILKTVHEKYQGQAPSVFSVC
In short: as §2

An IC50 [1] of over 10 µM, an IC50 [2] of 0.3 µM and an IC50 [3] of over 1 µM were found for `CS(=O)(=O)NCc1ccc(-n2cc(-c3ccnc4[nH]cnc34)cn2)nc1` [Example 1090, N-((6-(4-(3H-imidazo[4,5-b]pyridin-7-yl)-1H-pyrazol-1-yl)pyridin-3-yl)methyl)methanesulfonamide] in this work. The IC50 [4] was over 1 µM, the IC50 [5] was 0.12 µM and the IC50 [6] was 0.053 µM. For the same compound, the IC50 [7] was over 1 µM.
An IC50 [1] of over 1 µM, an IC50 [2] of under 0.1 µM and an IC50 [3] of over 1 µM were found for `O[C@@](c1ccc(-n2cc(-c3ccnc4[nH]cnc34)cn2)nc1)(C1CCN(C2COC2)C1)C(F)(F)F` (stereo partly drawn) [Example 1242, (R)-1-(6-(4-(3H-imidazo[4,5-b]pyridin-7-yl)-1H-pyrazol-1-yl)pyridin-3-yl)-2,2,2-trifluoro-1-(1-(oxetan-3-yl)pyrrolidin-3-yl)ethanol] in this work. The IC50 [4] was over 1 µM, the IC50 [5] was under 0.1 µM and the IC50 [6] was under 0.1 µM. It also gave an IC50 [7] of over 1 µM.
An IC50 [1] of over 1 µM, an IC50 [2] of under 0.1 µM and an IC50 [3] of over 1 µM were found for `O=C(NCCC(c1ccc(-n2cc(-c3ccnc4[nH]cnc34)cn2)nc1)C(F)(F)F)NC1CC1` (centres unmarked) [Example 1179, 1-(3-(6-(4-(3H-imidazo[4,5-b]pyridin-7-yl)-1H-Pyrazol-1-yl)pyridin-3-yl)-4,4,4-trifluorobutyl)-3-cyclopropylurea] in this work. It also gave an IC50 [4] of over 1 µM, an IC50 [5] of under 0.1 µM and an IC50 [6] of under 0.1 µM. It also gave an IC50 [7] of over 1 µM.
An IC50 [1] of over 1 µM, an IC50 [2] of over 0.03 µM and an IC50 [3] of over 0.75 µM were found for `CC(C)N1CCC([C@](O)(c2ccc(-n3cc(-c4ccnc5[nH]cnc45)cn3)nc2)C(F)(F)F)C1` (stereo partly drawn) [Example 1226, (S)-1-(6-(4-(3H-imidazo[4,5-b]pyridin-7-yl)-1H-pyrazol-1-yl)pyridin-3-yl)-2,2,2-trifluoro-1-(1-isopropylpyrrolidin-3-yl)ethanol] in this work. The IC50 [4] was over 0.5 µM, the IC50 [5] was over 0.03 µM and the IC50 [6] was under 0.01 µM. For the same compound, the IC50 [7] was over 1 µM.
An IC50 [1] of over 1 µM, an IC50 [2] of over 0.1 µM and an IC50 [3] of 1.5 µM were found for `FC(F)(F)[C@@H](c1ccc(-n2cc(-c3ccnc4[nH]cnc34)cn2)nc1)C1COC1` (single isomer, unassigned) [Example 1184] in this work. For the same compound, the IC50 [4] was over 0.8 µM, the IC50 [5] was under 0.1 µM and the IC50 [6] was under 0.1 µM. The IC50 [7] was over 1 µM.
An IC50 [1] of over 1 µM, an IC50 [2] of under 0.1 µM and an IC50 [3] of over 0.5 µM were found for `OCCC(c1ccc(-n2cc(-c3ccnc4[nH]cnc34)cn2)nc1)C(F)(F)F` (centres unmarked) [Example 1154, 3-(6-(4-(3H-imidazo[4,5-b]pyridin-7-yl)-1H-pyrazol-1-yl)pyridin-3-yl)-4,4,4-trifluorobutan-1-ol] in this work. For the same compound, the IC50 [4] was over 0.5 µM, the IC50 [5] was under 0.1 µM and the IC50 [6] was under 0.1 µM. For the same compound, the IC50 [7] was over 0.5 µM.
An IC50 [1] of over 10 µM, an IC50 [3] of over 10 µM and an IC50 [4] of over 10 µM were found for `O=C(Nc1ccncc1)N1CCN(c2ccnc3[nH]c(=O)[nH]c23)CC1` [Example 1014, 4-(2,3-dihydro-2-oxo-1H-imidazo[4,5-b]pyridin-7-yl)-N-(pyridin-4-yl)piperazine-1-carboxamide] in this work. It also gave an IC50 [5] of over 1 µM and an IC50 [7] of over 1 µM.
An IC50 [1] of over 10 µM, an IC50 [2] of over 1 µM and an IC50 [3] of over 10 µM were found for `O=C(NCC(F)(F)F)N1CCN(c2ccnc3[nH]c(=O)[nH]c23)CC1` [Example 1011, N-(2,2,2-trifluoroethyl)-4-(2,3-dihydro-2-oxo-1H-imidazo[4,5-b]pyridin-7-yl)piperazine-1-carboxamide] in this work. The IC50 [4] was over 10 µM, the IC50 [5] was over 1 µM and the IC50 [7] was over 1 µM.
An IC50 [2] of over 0.5 µM, an IC50 [3] of over 1 µM and an IC50 [4] of over 0.5 µM were found for `N#CCCC(c1ccc(-n2cc(-c3ccnc4[nH]cnc34)cn2)nc1)C(F)(F)F` (centres unmarked) [Example 1156, 4-(6-(4-(3H-imidazo[4,5-b]pyridin-7-yl)-1H-pyrazol-1-yl)pyridin-3-yl)-5,5,5-trifluoropentanenitrile] in this work. It also gave an IC50 [5] of over 0.5 µM, an IC50 [6] of over 0.1 µM and an IC50 [7] of over 1 µM.
An IC50 [2] of under 0.1 µM, an IC50 [3] of over 2 µM and an IC50 [4] of 1 µM were found for `CC(C)N1CCC([C@](O)(c2ccc(-n3cc(-c4ccnc5[nH]cnc45)cn3)cc2)C(F)(F)F)C1` (stereo partly drawn) [Example 1251, (S)-1-(4-(4-(3H-imidazo[4,5-b]pyridin-7-yl)-1H-pyrazol-1-yl)phenyl)-2,2,2-trifluoro-1-(1-isopropylpyrrolidin-3-yl)ethanol] in this work. It also gave an IC50 [5] of under 0.1 µM, an IC50 [6] of under 0.1 µM and an IC50 [7] of over 0.5 µM.
An IC50 [1] of 1 µM, an IC50 [2] of over 0.03 µM and an IC50 [3] of over 0.1 µM were found for `CC(C)NC(=O)CCC(O)(c1ccc(-n2cc(-c3ccnc4[nH]cnc34)cn2)nc1)C(F)(F)F` (centres unmarked) [Example 1238, 4-(6-(4-(3H-imidazo[4,5-b]pyridin-7-yl)-1H-pyrazol-1-yl)pyridin-3-yl)-5,5,5-trifluoro-4-hydroxy-N-isopropylpentanamide] in this work. It also gave an IC50 [4] of over 0.1 µM, an IC50 [6] of 0.003 µM and an IC50 [7] of over 0.1 µM.
An IC50 [1] of over 1 µM, an IC50 [3] of over 0.5 µM and an IC50 [4] of over 0.5 µM were found for `CNS(=O)(=O)CCC(c1ccc(-n2cc(-c3ccnc4[nH]cnc34)cn2)nc1)C(F)(F)F` (centres unmarked) [Example 1142, 3-(6-(4-(3H-imidazo[4,5-b]pyridin-7-yl)-1H-pyrazol-1-yl)pyridin-3-yl)-4,4,4-trifluoro-N-methylbutane-1-sulfonamide] in this work. The IC50 [5] was under 0.1 µM, the IC50 [6] was under 0.1 µM and the IC50 [7] was over 1 µM.
An IC50 [2] of under 0.1 µM, an IC50 [3] of 0.7 µM and an IC50 [4] of 0.55 µM were found for `CNC(=O)C[C@H](c1ccc(-n2cc(-c3ccnc4[nH]cnc34)cn2)nc1)C(F)(F)F` [Example 1213, (R)-3-(6-(4-(3H-imidazo[4,5-b]pyridin-7-yl)-1H-pyrazol-1-yl)pyridin-3-yl)-4,4,4-trifluoro-N-methylbutanamide] in this work. It also gave an IC50 [5] of under 0.1 µM, an IC50 [6] of under 0.1 µM and an IC50 [7] of over 0.5 µM.
An IC50 [2] of under 0.1 µM, an IC50 [3] of 0.51 µM and an IC50 [4] of 0.28 µM were found for `O=S(=O)(CC[C@@H](c1ccc(-n2cc(-c3ccnc4[nH]cnc34)cn2)nc1)C(F)(F)F)C1CC1` [Example 1216, 7-(1-(5-((S)-4-(cyclopropylsulfonyl)-1,1,1-trifluorobutan-2-yl)pyridin-2-yl)-1H-pyrazol-4-yl)-3H-imidazo[4,5-b]pyridine] in this work. For the same compound, the IC50 [5] was under 0.1 µM, the IC50 [6] was under 0.1 µM and the IC50 [7] was over 0.5 µM.
An IC50 [2] of under 0.1 µM, an IC50 [3] of over 0.8 µM and an IC50 [4] of over 0.75 µM were found for `N#CCC(=O)NCCC(c1ccc(-n2cc(-c3ccnc4[nH]cnc34)cn2)nc1)C(F)(F)F` (centres unmarked) [Example 1248, N-(3-(6-(4-(3H-imidazo[4,5-b]pyridin-7-yl)-1H-pyrazol-1-yl)pyridin-3-yl)-4,4,4-trifluorobutyl)-2-cyanoacetamide] in this work. It also gave an IC50 [5] of under 0.1 µM, an IC50 [6] of under 0.1 µM and an IC50 [7] of over 0.5 µM.
